In brackets after ≈: the same amount, converted by molar mass. Activity calls are given as the source filed them. No cut-off for these calls is given here.
Experiments:
[1] = biological target: Aurora kinase B (Homo sapiens) (UniProt Q96GD4); assay: Inhibition of AURKB in human RPE-MYC cells expressing BCL2 assessed as inhibition of histone H3 phosphorylation at Ser10 residue at 40 nM measured after 6 hrs by immunofluorescence staining analysis; assay type: cell-based
[2] = biological target: Aurora kinase B (Homo sapiens) (UniProt Q96GD4); assay: Disruption of mitotic localization of AURKB at the spindle mid-zone and equatorial cortex in human RPE-MYC cells expressing BCL2 at 40 nM measured after 6 hrs by immunofluorescence staining analysis; assay type: cell-based
[3] = biological target: Aurora kinase B (Homo sapiens) (UniProt Q96GD4); assay: Disruption of mitotic localization of AURKB in human RPE-MYC cells expressing BCL2 assessed as disruption of PLK1 localization at spindle mid-zone at 40 nM measured after 6 hrs by immunofluorescence staining analysis; assay type: cell-based
[4] = biological target: Aurora kinase B (Homo sapiens) (UniProt Q96GD4); assay: Disruption of mitotic localization of AURKB in human RPE-MYC cells expressing BCL2 assessed as disruption of MKLP1 localization at spindle mid-zone at 40 nM measured after 6 hrs by immunofluorescence staining analysis; assay type: cell-based
NCI-H23 = assay: Cytotoxicity against human NCI-H23 cells assessed as cell growth inhibition incubated for 3 days by MTT assay; assay type: functional, cell-based; conditions: time 3.0 day
HCT-116 = assay: Cytotoxicity against human HCT-116 cells assessed as cell growth inhibition incubated for 3 days by MTT assay; assay type: functional, cell-based; conditions: time 3.0 day
[5] = biological target: Discoidin domain-containing receptor 2 (Homo sapiens) (UniProt Q16832); assay: Inhibition of human recombinant DDR2 at 2 uM by KINOMEscan assay
[6] = biological target: Tyrosine-protein kinase ABL1 (Homo sapiens) (UniProt P00519); assay: Inhibition of human recombinant ABL1 at 2 uM by KINOMEscan assay
[7] = tested on: Tyrosine-protein kinase ABL1 (Homo sapiens), P00519 [Q252H]; assay: Inhibition of human recombinant ABL1 Q252H mutant at 2 uM by KINOMEscan assay
[8] = biological target: Serine/threonine-protein kinase PLK2 (Homo sapiens) (UniProt Q9NYY3); assay: Inhibition of PLK2 (unknown origin) by bio-chip based analysis
Sequence of Serine/threonine-protein kinase PLK2 (Homo sapiens) (Q9NYY3 whole entry, looked up): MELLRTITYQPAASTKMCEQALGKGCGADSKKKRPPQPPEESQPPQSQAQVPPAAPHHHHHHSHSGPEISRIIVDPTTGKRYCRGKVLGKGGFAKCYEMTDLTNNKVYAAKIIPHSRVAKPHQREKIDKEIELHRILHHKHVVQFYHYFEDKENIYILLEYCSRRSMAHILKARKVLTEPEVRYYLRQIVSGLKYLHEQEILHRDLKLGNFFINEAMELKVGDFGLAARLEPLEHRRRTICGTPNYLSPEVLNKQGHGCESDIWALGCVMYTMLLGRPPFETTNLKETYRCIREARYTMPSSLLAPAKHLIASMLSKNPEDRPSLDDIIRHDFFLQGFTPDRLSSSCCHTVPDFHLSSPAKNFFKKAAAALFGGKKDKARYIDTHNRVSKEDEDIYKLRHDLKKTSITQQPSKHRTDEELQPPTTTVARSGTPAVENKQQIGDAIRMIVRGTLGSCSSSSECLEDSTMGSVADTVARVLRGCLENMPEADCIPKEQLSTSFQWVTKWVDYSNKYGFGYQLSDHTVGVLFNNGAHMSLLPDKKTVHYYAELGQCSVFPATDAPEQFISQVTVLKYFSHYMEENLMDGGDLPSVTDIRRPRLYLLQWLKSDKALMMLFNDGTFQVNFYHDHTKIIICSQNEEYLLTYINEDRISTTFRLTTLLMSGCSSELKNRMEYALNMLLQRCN

[9] = biological target: Serine/threonine-protein kinase PLK3 (Homo sapiens) (UniProt Q9H4B4); assay: Inhibition of PLK3 (unknown origin) by bio-chip based analysis
Sequence of Serine/threonine-protein kinase PLK3 (Homo sapiens) (Q9H4B4 whole entry, looked up): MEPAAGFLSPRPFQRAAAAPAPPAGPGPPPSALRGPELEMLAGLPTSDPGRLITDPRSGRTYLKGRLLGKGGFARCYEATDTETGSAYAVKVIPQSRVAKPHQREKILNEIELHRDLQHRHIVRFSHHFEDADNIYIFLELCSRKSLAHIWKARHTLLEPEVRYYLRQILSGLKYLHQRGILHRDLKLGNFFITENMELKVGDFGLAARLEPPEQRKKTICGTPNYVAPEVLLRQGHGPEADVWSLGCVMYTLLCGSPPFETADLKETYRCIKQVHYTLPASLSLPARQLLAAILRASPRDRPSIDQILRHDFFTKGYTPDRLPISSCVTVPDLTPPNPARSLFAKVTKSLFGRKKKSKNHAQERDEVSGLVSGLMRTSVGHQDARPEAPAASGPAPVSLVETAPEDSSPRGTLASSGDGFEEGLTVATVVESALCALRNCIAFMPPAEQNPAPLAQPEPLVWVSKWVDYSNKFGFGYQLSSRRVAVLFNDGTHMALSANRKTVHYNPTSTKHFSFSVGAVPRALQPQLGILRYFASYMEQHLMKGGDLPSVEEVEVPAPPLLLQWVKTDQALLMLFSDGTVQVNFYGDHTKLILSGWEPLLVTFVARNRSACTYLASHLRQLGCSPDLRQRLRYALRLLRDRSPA

[10] = biological target: Serine/threonine-protein kinase PLK4 (Homo sapiens) (UniProt O00444); assay: Inhibition of PLK4 (unknown origin) by bio-chip based analysis
Sequence of Serine/threonine-protein kinase PLK4 (Homo sapiens) (O00444 whole entry): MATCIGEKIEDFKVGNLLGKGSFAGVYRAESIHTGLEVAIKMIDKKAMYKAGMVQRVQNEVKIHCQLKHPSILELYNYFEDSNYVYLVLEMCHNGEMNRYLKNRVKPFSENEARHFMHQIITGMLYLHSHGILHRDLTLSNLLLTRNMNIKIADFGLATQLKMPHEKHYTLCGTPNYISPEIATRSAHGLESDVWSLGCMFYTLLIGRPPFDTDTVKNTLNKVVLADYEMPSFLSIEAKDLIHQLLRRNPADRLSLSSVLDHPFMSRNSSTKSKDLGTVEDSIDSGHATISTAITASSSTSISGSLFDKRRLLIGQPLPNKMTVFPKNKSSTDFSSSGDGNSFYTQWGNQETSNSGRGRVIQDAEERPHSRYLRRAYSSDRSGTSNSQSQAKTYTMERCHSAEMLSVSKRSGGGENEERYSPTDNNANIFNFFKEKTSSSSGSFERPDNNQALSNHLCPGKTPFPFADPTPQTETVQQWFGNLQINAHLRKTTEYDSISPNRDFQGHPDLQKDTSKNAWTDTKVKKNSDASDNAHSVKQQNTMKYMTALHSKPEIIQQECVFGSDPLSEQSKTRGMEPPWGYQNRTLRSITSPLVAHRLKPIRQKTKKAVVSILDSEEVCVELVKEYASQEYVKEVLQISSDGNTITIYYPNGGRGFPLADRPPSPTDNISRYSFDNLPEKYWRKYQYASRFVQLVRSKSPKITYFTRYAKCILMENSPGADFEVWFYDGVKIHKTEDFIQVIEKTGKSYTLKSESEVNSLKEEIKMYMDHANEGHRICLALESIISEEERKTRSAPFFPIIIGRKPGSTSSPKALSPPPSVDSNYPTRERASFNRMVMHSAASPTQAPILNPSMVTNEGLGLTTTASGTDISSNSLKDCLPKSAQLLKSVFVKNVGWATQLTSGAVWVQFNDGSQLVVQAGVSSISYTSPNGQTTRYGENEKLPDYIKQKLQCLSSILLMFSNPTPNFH

[11] = biological target: Mitotic checkpoint serine/threonine-protein kinase BUB1 (Homo sapiens) (UniProt O43683); assay: Inhibition of Bub1 (unknown origin) by bio-chip based analysis
[12] = biological target: Aurora kinase B (Homo sapiens) (UniProt Q96GD4); assay: Inhibition of AURKB (unknown origin) by bio-chip based analysis
[13] = biological target: Mast/stem cell growth factor receptor Kit (Homo sapiens, UniProt P10721); assay: Inhibition of c-Kit (unknown origin); assay type: toxicity
Sequence of Mast/stem cell growth factor receptor Kit (P10721 whole entry): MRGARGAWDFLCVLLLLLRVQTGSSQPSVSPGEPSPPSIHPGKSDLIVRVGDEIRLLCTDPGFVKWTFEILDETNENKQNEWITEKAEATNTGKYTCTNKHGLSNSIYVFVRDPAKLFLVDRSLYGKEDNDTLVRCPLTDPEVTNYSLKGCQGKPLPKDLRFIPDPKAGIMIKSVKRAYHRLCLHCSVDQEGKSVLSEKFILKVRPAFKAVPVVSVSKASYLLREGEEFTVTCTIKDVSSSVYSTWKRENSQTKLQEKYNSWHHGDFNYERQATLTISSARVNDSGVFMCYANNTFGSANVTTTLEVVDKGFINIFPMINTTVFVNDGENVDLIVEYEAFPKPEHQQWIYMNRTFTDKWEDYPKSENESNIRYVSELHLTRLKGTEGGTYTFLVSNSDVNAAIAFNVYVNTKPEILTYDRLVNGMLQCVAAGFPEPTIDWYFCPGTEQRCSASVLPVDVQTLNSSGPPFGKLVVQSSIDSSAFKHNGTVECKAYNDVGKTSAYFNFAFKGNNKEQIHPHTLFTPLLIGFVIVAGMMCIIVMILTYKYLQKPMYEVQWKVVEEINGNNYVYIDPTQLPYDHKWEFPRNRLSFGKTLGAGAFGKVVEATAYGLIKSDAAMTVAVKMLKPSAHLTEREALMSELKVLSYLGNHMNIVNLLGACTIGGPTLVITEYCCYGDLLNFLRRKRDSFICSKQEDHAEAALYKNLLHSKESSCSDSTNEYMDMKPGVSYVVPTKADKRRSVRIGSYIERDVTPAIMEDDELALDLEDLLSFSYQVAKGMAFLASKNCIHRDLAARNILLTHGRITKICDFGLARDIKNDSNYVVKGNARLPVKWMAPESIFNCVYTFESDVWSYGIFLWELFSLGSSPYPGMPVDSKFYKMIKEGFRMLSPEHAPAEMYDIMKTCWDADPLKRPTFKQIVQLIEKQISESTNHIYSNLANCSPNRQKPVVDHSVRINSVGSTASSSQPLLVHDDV

[14] = biological target: Receptor-type tyrosine-protein kinase FLT3 (Homo sapiens, UniProt P36888); assay: Inhibition of FLT3 (unknown origin); assay type: toxicity
Sequence of Receptor-type tyrosine-protein kinase FLT3 (P36888 whole entry): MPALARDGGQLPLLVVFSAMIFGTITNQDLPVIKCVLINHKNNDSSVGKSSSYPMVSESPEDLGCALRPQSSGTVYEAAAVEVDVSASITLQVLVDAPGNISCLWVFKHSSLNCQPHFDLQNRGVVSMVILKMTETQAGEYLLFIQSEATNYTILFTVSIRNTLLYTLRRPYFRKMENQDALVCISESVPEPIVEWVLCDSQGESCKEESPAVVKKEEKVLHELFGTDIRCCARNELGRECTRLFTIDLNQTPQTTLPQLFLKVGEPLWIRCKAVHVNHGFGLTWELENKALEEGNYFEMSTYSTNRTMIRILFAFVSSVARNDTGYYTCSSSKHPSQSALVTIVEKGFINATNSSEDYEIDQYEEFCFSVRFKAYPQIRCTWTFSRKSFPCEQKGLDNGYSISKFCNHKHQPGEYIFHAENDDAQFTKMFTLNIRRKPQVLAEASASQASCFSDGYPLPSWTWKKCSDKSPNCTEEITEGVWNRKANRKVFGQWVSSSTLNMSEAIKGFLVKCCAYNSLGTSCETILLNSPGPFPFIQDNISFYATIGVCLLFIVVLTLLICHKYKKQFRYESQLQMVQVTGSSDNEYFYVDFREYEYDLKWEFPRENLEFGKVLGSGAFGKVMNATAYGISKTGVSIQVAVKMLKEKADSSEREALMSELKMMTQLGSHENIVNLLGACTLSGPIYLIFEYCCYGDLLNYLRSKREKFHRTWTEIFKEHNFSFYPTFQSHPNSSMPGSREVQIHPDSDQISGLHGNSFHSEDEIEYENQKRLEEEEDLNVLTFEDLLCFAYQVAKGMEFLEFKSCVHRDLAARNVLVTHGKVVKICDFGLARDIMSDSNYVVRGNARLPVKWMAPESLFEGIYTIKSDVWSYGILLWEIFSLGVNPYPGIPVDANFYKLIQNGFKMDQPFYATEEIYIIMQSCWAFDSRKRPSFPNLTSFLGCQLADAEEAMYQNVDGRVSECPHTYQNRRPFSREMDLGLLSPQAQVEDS

[15] = Drug degradation in human plasma at 1 to 10 uM incubated for 2 hrs by LC-MS analysis; assay type: ADME, cell-free; conditions: dose 1-10 µM, read-out: Drug degradation
[16] = Drug degradation in mouse plasma at 1 to 10 uM incubated for 2 hrs by LC-MS analysis; assay type: ADME, cell-free; conditions: dose 1-10 µM, read-out: Drug degradation
[17] = Drug degradation in PBS buffer at pH 7.4 measured after 72 hrs by LC-MS analysis; assay type: physicochemical; conditions: read-out: Drug degradation
[18] = Kinetic solubility of the compound in PBS buffer at pH 7.4 measured after 72 hrs by LC-MS analysis; assay type: physicochemical; conditions: read-out: Kinetic_solubility
[19] = Lipophilicity, log D of the compound in Octanol and HCl buffer at pH 2.2 incubated for 24 hrs under shaking condition followed by incubation for 1 hr without shaking by LC-MS analysis; assay type: physicochemical
[20] = Lipophilicity, log D of the compound in Octanol and PBS buffer at pH 7.4 incubated for 24 hrs under shaking condition followed by incubation for 1 hr without shaking by LC-MS analysis; assay type: physicochemical
[21] = Half life in Wistar rat at 20 mg/kg, po measured for 24 hrs by LC-MS/MS analysis; assay type: ADME, organism-based; conditions: in vivo
[22] = Cmax in Wistar rat at 20 mg/kg, po measured for 24 hrs by LC-MS/MS analysis; assay type: ADME, organism-based; set-up: time 24 hrs, dose 20 mg/kg, route po; conditions: in vivo
[23] = Dose normalized AUC (0 to infinity) in Wistar rat at 20 mg/kg, po by LC-MS/MS analysis; assay type: ADME, organism-based; conditions: in vivo
[24] = Half life in Wistar rat at 2 mg/kg, iv measured for 24 hrs by LC-MS/MS analysis; assay type: ADME, organism-based; conditions: in vivo
[25] = Apparent volume of distribution in Wistar rat at 2 mg/kg, iv measured after 24 hrs by LC-MS/MS analysis; assay type: ADME, organism-based; conditions: in vivo, read-out: Vz
[26] = MRT (0 to infinity) in Wistar rat at 2 mg/kg, iv by LC-MS/MS analysis; assay type: ADME, organism-based; conditions: in vivo
[27] = Toxicity in BALB/c nude mouse xenografted with human HCT-116 cells assessed as body weight at 50 mg/kg, po bid for 7 days; assay type: organism-based; conditions: in vivo, 168 h, time 7 day
Mus musculus [28] = assay: Induction of polyploidy in BALB/c nude mouse xenografted with human HCT-116 cells assessed as increase in polyploid cells in tumor at 50 mg/kg, po bid for 7 days by immunohistochemical staining based analysis relative to control; assay type: functional; conditions: time 7 day
Mus musculus [29] = assay: Induction of mitotic arrest in BALB/c nude mouse xenografted with human HCT-116 cells assessed as increase in mitotic index by measuring increase in accumulation of H3Ser10P positive cells in tumor at 50 mg/kg, po bid for 7 days by immunohistochemical staining based analysis relative to control; assay type: functional; conditions: time 7 day
[30] = Drug uptake in tumor of BALB/c nude mouse xenografted with human HCT-116 cells at 50 mg/kg, po bid for 7 days and measured at 6 hrs post-last drug administration by LC-MS/MS analysis; assay type: ADME, organism-based, Neoplasm; conditions: time 7 day, read-out: Drug uptake
[31] = Ratio of drug uptake in tumor of BALB/c nude mouse xenografted with human HCT-116 cells at 50 mg/kg, po bid for 7 days and measured at 6 hrs post-last drug administration to MEC for Disruption of mitotic localization of AURKB in human RPE-MYC H2B-GFP cells assessed as induction of polyploidy
[32] = Ratio of AUC (0 to 6 hrs) in BALB/c nude mouse xenografted with human HCT-116 cells at 50 mg/kg, po bid for 7 days to AUC (0 to 6 hrs) in BALB/c nude mouse xenografted with human HCT-116 cells administered as single dose; assay type: ADME, organism-based; conditions: in vivo
[33] = Plasma concentration in BALB/c nude mouse xenografted with human HCT-116 cells at 50 mg/kg, po bid for 7 days and measured at 12 hrs post-last drug administration by LC-MS/MS analysis; assay type: ADME, organism-based; conditions: time 7 day
[34] = Plasma concentration in BALB/c nude mouse xenografted with human HCT-116 cells administered as single dose and measured after 6 hrs by LC-MS/MS analysis; assay type: ADME
[35] = biological target: Aurora kinase B (Homo sapiens) (UniProt Q96GD4); assay: Disruption of mitotic localization of AURKB in human RPE-MYC H2B-GFP cells assessed as induction of mitotic arrest by fluorescence high content cell imaging analysis; assay type: cell-based

Sequence of Aurora kinase B (Homo sapiens) (Q96GD4 whole entry): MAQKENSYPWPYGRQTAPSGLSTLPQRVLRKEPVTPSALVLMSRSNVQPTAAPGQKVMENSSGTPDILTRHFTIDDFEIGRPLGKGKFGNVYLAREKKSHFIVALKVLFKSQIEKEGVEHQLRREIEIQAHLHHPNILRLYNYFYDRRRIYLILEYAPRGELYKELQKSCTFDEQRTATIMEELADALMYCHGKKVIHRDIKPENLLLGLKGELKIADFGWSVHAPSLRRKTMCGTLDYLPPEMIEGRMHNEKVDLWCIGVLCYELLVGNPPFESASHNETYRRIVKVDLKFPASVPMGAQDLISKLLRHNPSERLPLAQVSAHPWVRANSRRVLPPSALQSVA

inhibition [1]: inactive
Activity [2]: Active
Activity [3]: Active
Activity [4]: Active
inhibition [5]: Active
inhibition [6]: Active
inhibition [7]: Active
inhibition [8]: inactive
inhibition [9]: inactive
inhibition [10]: inactive
inhibition [11]: inactive
inhibition [12]: inactive
metabolised at 2 h, up to 10 µM [15]: 0%
metabolised at 2 h, up to 10 µM [16]: 0%
degraded at 72 h [17]: 0%
solubility kinetic at 72 h [18]: 16 µM (≈ 5.41 µg/mL)
logD at 25 h [19]: 0.31
logD at 25 h [20]: 3.81
half-life [21]: 3.26 h
Cmax [22]: 3140 ng/mL
AUC/dose [23]: 149.54 ng·h/mL/mg/kg
half-life [24]: 1.09 h
Vd [25]: 2.78 L/kg
MRT inf [26]: 2.09 h
concentration at 168 h [30]: 239 ng/mL
Ratio [32]: 2
concentration at 168 h [33]: 3.27 ng/mL
concentration at 6 h [34]: 213 ng/mL
Activity [35]: inactive
Compound: COc1cc(NC(C)=O)cc(Oc2ccnc3ccc(OC)cc23)c1
Activity (NCI-H23): Active
Activity (HCT-116): Active
inhibition (INH) [13]: Not Active
inhibition (INH) [14]: Not Active
Activity [27]: Non-Toxic
fold change (FC) (Mus musculus [28]): 1.7
fold change (FC) (Mus musculus [29]): 6.7
Ratio [31]: 70

— ChEMBL document CHEMBL5241130, “Integrating a phenotypic screening with a structural simplification strategy to identify 4-phenoxy-quinoline derivatives to potently disrupt the mitotic localization of Aurora kinase B” (Bioorg Med Chem, 2023)
